Experimental data published in patent US20020068759A1, “Medicament” (SmithKline Beecham plc, priority 1990, published 2002).
Structures can show the parent of a compound that is named as a salt.

| melting point | Compound |
| --- | --- |
| 118 to 120 °C | CCCCc1ncc(CC(Cc2ccccc2)C(=O)O)n1Cc1ccccc1Cl (stereo not drawn) (as salt: hydrochloride) [Example 2, 3-[2-n-Butyl-1-{(2-chlorophenyl)methyl}-1H-imidazol-5-yl]-2-benzylpropanoic Acid] |
| 178 to 181 °C | CCCSc1ncc(C[C@H](NC(=O)CCC)C(=O)O)n1Cc1ccccc1Cl [Example 1, 3-[(2-Chlorophenyl)methyl]-2-propylthio-N-butyrylhistidine] |
| 254 to 255 °C | CCCCc1nc2cc(Br)cc(C(=O)O)c2n1Cc1ccccc1Cl [Example 4, 5-Bromo-2-n-butyl-1-(2-chlorophenyl)methyl-1H-benzimidazole-7-carboxylic Acid] |
